Reference: PMC5218480 (PLoS ONE, 2017)

Tested on: MV-4-11 cells
Test: Gene expression microarray analysis (Affymetrix PrimeView) and GSEA
Format: cell-based, human
Parameters: RFU PODN (11730768_x_at) / Fold change /veh PODN (11730768_x_at) / RFU LINC00158 (11744669_a_at) / Fold change /veh LINC00158 (11744669_a_at) / RFU DUSP10 (11751237_a_at) / Fold change /veh DUSP10 (11751237_a_at) / RFU ID3 (11757404_x_at) / Fold change /veh ID3 (11757404_x_at) / RFU PLEKHG5 (11737974_s_at) / Fold change /veh PLEKHG5 (11737974_s_at) / RFU LRRC4B (11730491_at) / Fold change /veh LRRC4B (11730491_at) / RFU GIMAP4 (11747438_a_at) / Fold change /veh GIMAP4 (11747438_a_at) / RFU KRT8 (11758183_x_at) / Fold change /veh KRT8 (11758183_x_at) / RFU CNN1 (11734310_a_at) / Fold change /veh CNN1 (11734310_a_at) / RFU VPS37D (11726825_at) / Fold change /veh VPS37D (11726825_at) / RFU C10orf10 (11716522_x_at) / Fold change /veh C10orf10 (11716522_x_at) / RFU KIR2DL2 /// KIR2DL4 /// KIR2DL5A /// KIR2DL5B /// KIR2DS1 /// KIR2DS2 /// KIR2DS3 /// KIR2DS4 /// KIR3DL3 /// KIR3DL3 /// KIR3DS1 (11738374_at) / Fold change /veh KIR2DL2 /// KIR2DL4 /// KIR2DL5A /// KIR2DL5B /// KIR2DS1 /// KIR2DS2 /// KIR2DS3 /// KIR2DS4 /// KIR3DL3 /// KIR3DL3 /// KIR3DS1 (11738374_at) / RFU C1QL1 (11718748_at) / Fold change /veh C1QL1 (11718748_at) / RFU TMPRSS4 (11747572_a_at) / Fold change /veh TMPRSS4 (11747572_a_at) / RFU HAMP (11756126_x_at) / Fold change /veh HAMP (11756126_x_at) / RFU RNFT2 (11725882_a_at) / Fold change /veh RNFT2 (11725882_a_at) / RFU NR4A2 (11747474_a_at) / Fold change /veh NR4A2 (11747474_a_at) / RFU ABCC12 (11746883_a_at) / Fold change /veh ABCC12 (11746883_a_at) / RFU TMEM136 (11760407_x_at) / Fold change /veh TMEM136 (11760407_x_at) / RFU CLDN22 /// WWC2 (11732394_at) / Fold change /veh CLDN22 /// WWC2 (11732394_at) / RFU HLA-DPB1 (11760878_x_at) / Fold change /veh HLA-DPB1 (11760878_x_at) / RFU SPINT1 (11716480_a_at) / Fold change /veh SPINT1 (11716480_a_at) / RFU GAP43 (11754022_s_at) / Fold change /veh GAP43 (11754022_s_at) / RFU A4GNT (11735810_at) / Fold change /veh A4GNT (11735810_at) / RFU PRB3 (11715151_x_at) / Fold change /veh PRB3 (11715151_x_at) / RFU TUBB4B (11761932_at) / Fold change /veh TUBB4B (11761932_at) / RFU CAPN14 (11732068_a_at) / Fold change /veh CAPN14 (11732068_a_at) / RFU TMCC2 (11721928_a_at) / Fold change /veh TMCC2 (11721928_a_at) / RFU IRGQ (11745062_a_at) / Fold change /veh IRGQ (11745062_a_at) / RFU FAM174B (11720279_a_at) / Fold change /veh FAM174B (11720279_a_at) / RFU TMPRSS4 (11748680_a_at) / Fold change /veh TMPRSS4 (11748680_a_at) / RFU FAM212B (11763350_a_at) / Fold change /veh FAM212B (11763350_a_at) / RFU PLEKHG5 (11743358_a_at) / Fold change /veh PLEKHG5 (11743358_a_at) / RFU ZSCAN30 (11745921_a_at) / Fold change /veh ZSCAN30 (11745921_a_at) / RFU CMKLR1 (11741424_a_at) / Fold change /veh CMKLR1 (11741424_a_at) / RFU LOC101060620 /// MAPK8IP1 (11723275_at) / Fold change /veh LOC101060620 /// MAPK8IP1 (11723275_at) / RFU SPTSSB (11747773_x_at) / Fold change /veh SPTSSB (11747773_x_at) / RFU PRSS12 (11739890_at) / Fold change /veh PRSS12 (11739890_at) / RFU BIN1 (11741810_x_at) / Fold change /veh BIN1 (11741810_x_at) / RFU WNT11 (11732464_a_at) / Fold change /veh WNT11 (11732464_a_at) / RFU C10orf10 (11716521_a_at) / Fold change /veh C10orf10 (11716521_a_at) / RFU C5orf56 (11738089_at) / Fold change /veh C5orf56 (11738089_at) / RFU CYB561 (11721691_x_at) / Fold change /veh CYB561 (11721691_x_at) / RFU ANKRD19P (11752326_a_at) / Fold change /veh ANKRD19P (11752326_a_at) / RFU OR2T12 /// OR2T33 /// OR2T8 (11738714_s_at) / Fold change /veh OR2T12 /// OR2T33 /// OR2T8 (11738714_s_at) / RFU VCAN (11748164_a_at) / Fold change /veh VCAN (11748164_a_at) / RFU JSRP1 (11732532_at) / Fold change /veh JSRP1 (11732532_at) / RFU KRTAP10-11 (11738290_x_at) / Fold change /veh KRTAP10-11 (11738290_x_at) / RFU MYO3A (11730013_a_at) / Fold change /veh MYO3A (11730013_a_at) / RFU EBF3 (11725865_a_at) / Fold change /veh EBF3 (11725865_a_at) / RFU CAMK2N1 (11719241_x_at) / Fold change /veh CAMK2N1 (11719241_x_at) / RFU C5orf56 (11738088_a_at) / Fold change /veh C5orf56 (11738088_a_at) / RFU OLFML3 (11715873_a_at) / Fold change /veh OLFML3 (11715873_a_at) / RFU LOC100653217 /// NTM (11731650_a_at) / Fold change /veh LOC100653217 /// NTM (11731650_a_at) / RFU MAPK11 (11762145_a_at) / Fold change /veh MAPK11 (11762145_a_at) / RFU FIZ1 (11724087_x_at) / Fold change /veh FIZ1 (11724087_x_at) / RFU OASL (11726364_x_at) / Fold change /veh OASL (11726364_x_at) / RFU SOX15 (11748057_x_at) / Fold change /veh SOX15 (11748057_x_at) / RFU CD79A (11719716_a_at) / Fold change /veh CD79A (11719716_a_at) / RFU HIST1H1D (11736915_at) / Fold change /veh HIST1H1D (11736915_at) / RFU CASKIN2 (11723855_a_at) / Fold change /veh CASKIN2 (11723855_a_at) / RFU LOC730098 (11760151_x_at) / Fold change /veh LOC730098 (11760151_x_at) / RFU OR4N2 (11742367_at) / Fold change /veh OR4N2 (11742367_at) / RFU PRRT2 (11749266_a_at) / Fold change /veh PRRT2 (11749266_a_at) / RFU SNX32 (11753110_a_at) / Fold change /veh SNX32 (11753110_a_at) / RFU CDHR5 (11726645_a_at) / Fold change /veh CDHR5 (11726645_a_at) / RFU RCAN1 (11760418_a_at) / Fold change /veh RCAN1 (11760418_a_at) / RFU FAM167A (11723789_a_at) / Fold change /veh FAM167A (11723789_a_at) / RFU FAM26E (11764081_at) / Fold change /veh FAM26E (11764081_at) / RFU ISYNA1 (11749810_s_at) / Fold change /veh ISYNA1 (11749810_s_at) / RFU ACY1 (11761880_at) / Fold change /veh ACY1 (11761880_at) / RFU 11764098_at / Fold change /veh 11764098_at / RFU SAMD14 (11745864_x_at) / Fold change /veh SAMD14 (11745864_x_at) / RFU NPB (11741838_a_at) / Fold change /veh NPB (11741838_a_at) / RFU TMPRSS6 (11731388_a_at) / Fold change /veh TMPRSS6 (11731388_a_at) / RFU KRTAP10-2 (11738614_at) / Fold change /veh KRTAP10-2 (11738614_at) / RFU ARHGAP8 /// PRR5-ARHGAP8 (11727945_x_at) / Fold change /veh ARHGAP8 /// PRR5-ARHGAP8 (11727945_x_at) / RFU KRTAP5-7 /// NADSYN1 (11734609_at) / Fold change /veh KRTAP5-7 /// NADSYN1 (11734609_at) / RFU RASL12 (11751679_a_at) / Fold change /veh RASL12 (11751679_a_at) / RFU CDKN2B (11736163_a_at) / Fold change /veh CDKN2B (11736163_a_at) / RFU PRF1 (11729649_at) / Fold change /veh PRF1 (11729649_at) / RFU, ZNF638 /// ZNF638-IT1 / Fold change vs veh, ZNF638 /// ZNF638-IT1 / RFU, PANK3 / Fold change vs veh, PANK3 / RFU, SH3YL1 / Fold change vs veh, SH3YL1 / RFU, ZEB2 / Fold change vs veh, ZEB2 / RFU, NRIP1 / Fold change vs veh, NRIP1 / RFU, PTTG1IP / Fold change vs veh, PTTG1IP / RFU, CAPN2 / Fold change vs veh, CAPN2 / RFU, MED14 / Fold change vs veh, MED14 / RFU, SNORA58 / Fold change vs veh, SNORA58 / RFU, C1orf63 / Fold change vs veh, C1orf63 / RFU, LRRFIP1 / Fold change vs veh, LRRFIP1 / RFU, NDUFAF7 / Fold change vs veh, NDUFAF7 / RFU, SLC12A2 / Fold change vs veh, SLC12A2 / RFU, IBTK / Fold change vs veh, IBTK / RFU, ESF1 / Fold change vs veh, ESF1 / Fold change vs veh, TMEM50B / RFU, TAOK1 / Fold change vs veh, TAOK1 / RFU, ACBD3 / Fold change vs veh, ACBD3 / RFU, TMA16 / Fold change vs veh, TMA16 / RFU, RWDD3 / Fold change vs veh, RWDD3 / RFU, BCAT1 / Fold change vs veh, BCAT1 / RFU, EDEM3 / Fold change vs veh, EDEM3 / RFU, TMEM33 / Fold change vs veh, TMEM33 / RFU, WDR75 / Fold change vs veh, WDR75 / RFU, AHCTF1 / Fold change vs veh, AHCTF1 / RFU, TFRC / Fold change vs veh, TFRC / RFU, ZDHHC17 / Fold change vs veh, ZDHHC17 / RFU, NOM1 / Fold change vs veh, NOM1 / RFU, ARL8B / Fold change vs veh, ARL8B / RFU, ZBTB11 / Fold change vs veh, ZBTB11 / RFU, TAMM41 / Fold change vs veh, TAMM41 / RFU, KIAA1704 /// LOC100996395 / Fold change vs veh, KIAA1704 /// LOC100996395 / RFU, ING1 / Fold change vs veh, ING1 / RFU, TRMT61B / Fold change vs veh, TRMT61B / RFU, FUBP3 / Fold change vs veh, FUBP3 / RFU, TP53 / Fold change vs veh, TP53 / RFU, TNKS2 / Fold change vs veh, TNKS2 / RFU, ZFP14 / Fold change vs veh, ZFP14 / RFU, ACTR2 / Fold change vs veh, ACTR2 / RFU, PPP3R1 / Fold change vs veh, PPP3R1 / RFU, PIK3R1 / Fold change vs veh, PIK3R1 / RFU, HNRNPA1 / Fold change vs veh, HNRNPA1 / RFU, RNF170 / Fold change vs veh, RNF170 / RFU, ZNF28 / Fold change vs veh, ZNF28 / RFU, RNGTT / Fold change vs veh, RNGTT / RFU, OGT / Fold change vs veh, OGT / RFU, BRD1 / Fold change vs veh, BRD1 / RFU, MARS / Fold change vs veh, MARS / RFU, ZNF655 / Fold change vs veh, ZNF655 / RFU, FAHD1 / Fold change vs veh, FAHD1 / RFU, BDP1 / Fold change vs veh, BDP1 / RFU, LRRCC1 / Fold change vs veh, LRRCC1 / RFU, ARID1A / Fold change vs veh, ARID1A / RFU, ZNF146 / Fold change vs veh, ZNF146 / RFU, ZNF330 / Fold change vs veh, ZNF330 / RFU, GPN3 / Fold change vs veh, GPN3 / RFU, C9orf123 / Fold change vs veh, C9orf123 / RFU, N4BP2L2 / Fold change vs veh, N4BP2L2 / RFU, ARFIP1 / Fold change vs veh, ARFIP1 / RFU, FAM179B / Fold change vs veh, FAM179B / RFU, BCL10 / Fold change vs veh, BCL10 / RFU, UHRF1BP1L / Fold change vs veh, UHRF1BP1L / RFU, BET1 / Fold change vs veh, BET1 / RFU, CNOT2 / Fold change vs veh, CNOT2 / RFU, ZNF268 / Fold change vs veh, ZNF268 / Fold change vs veh, ZNF507 / RFU, DGCR2 / Fold change vs veh, DGCR2 / RFU, WDSUB1 / Fold change vs veh, WDSUB1 / Fold change vs veh, HSP90B1 /// MIR3652 / RFU, ADSS / Fold change vs veh, ADSS / RFU, GK / Fold change vs veh, GK / RFU, ZNF148 / Fold change vs veh, ZNF148 / RFU, TAF9 / Fold change vs veh, TAF9 / RFU, SLC1A5 / Fold change vs veh, SLC1A5 / RFU, SLMO2 / Fold change vs veh, SLMO2 / RFU, ABCC4 / Fold change vs veh, ABCC4 / RFU, LOC101060439 /// RAP1B / Fold change vs veh, LOC101060439 /// RAP1B / RFU, RFX7 / Fold change vs veh, RFX7 / RFU, GTPBP10 / Fold change vs veh, GTPBP10 / RFU, CNEP1R1 / Fold change vs veh, CNEP1R1 / RFU, BIVM-ERCC5 /// ERCC5 / Fold change vs veh, BIVM-ERCC5 /// ERCC5 / RFU, ILF3 / Fold change vs veh, ILF3 / RFU 11762660_at / Fold change /veh 11762660_at / RFU VCAN (11757783_s_at) / Fold change /veh VCAN (11757783_s_at) / RFU DDX43 (11728927_at) / Fold change /veh DDX43 (11728927_at) / RFU KRT8 (11758188_x_at) / Fold change /veh KRT8 (11758188_x_at) / RFU NKD1 (11759106_at) / Fold change /veh NKD1 (11759106_at) / RFU SRD5A1 (11742802_a_at) / Fold change /veh SRD5A1 (11742802_a_at) / RFU TPSAB1 /// TPSB2 (11721975_s_at) / Fold change /veh TPSAB1 /// TPSB2 (11721975_s_at) / RFU GSTM3 (11746129_a_at) / Fold change /veh GSTM3 (11746129_a_at) / RFU IL23R (11737362_x_at) / Fold change /veh IL23R (11737362_x_at) / RFU TMEM51 (11727254_a_at) / Fold change /veh TMEM51 (11727254_a_at) / RFU PIWIL2 (11732686_x_at) / Fold change /veh PIWIL2 (11732686_x_at) / RFU ORM1 (11744905_x_at) / Fold change /veh ORM1 (11744905_x_at) / RFU CCDC152 (11743942_at) / Fold change /veh CCDC152 (11743942_at) / RFU ECM1 (11717891_a_at) / Fold change /veh ECM1 (11717891_a_at) / RFU IL23R (11748794_a_at) / Fold change /veh IL23R (11748794_a_at) / RFU TNFAIP8L3 (11732012_x_at) / Fold change /veh TNFAIP8L3 (11732012_x_at) / RFU MBOAT4 (11741988_at) / Fold change /veh MBOAT4 (11741988_at) / RFU 11764193_at / Fold change /veh 11764193_at / RFU TMEM53 (11763286_at) / Fold change /veh TMEM53 (11763286_at) / RFU MAGEB2 (11727129_at) / Fold change /veh MAGEB2 (11727129_at) / RFU TMEM200A (11744735_a_at) / Fold change /veh TMEM200A (11744735_a_at) / RFU CCDC152 (11751479_a_at) / Fold change /veh CCDC152 (11751479_a_at) / RFU FAM211A (11726209_a_at) / Fold change /veh FAM211A (11726209_a_at) / RFU RGS16 (11746705_a_at) / Fold change /veh RGS16 (11746705_a_at) / RFU VCAN (11755009_s_at) / Fold change /veh VCAN (11755009_s_at) / RFU RHOB (11743442_s_at) / Fold change /veh RHOB (11743442_s_at) / RFU RGS16 (11720943_a_at) / Fold change /veh RGS16 (11720943_a_at) / RFU RGS16 (11720944_at) / Fold change /veh RGS16 (11720944_at) / RFU, VPS4B / Fold change vs veh, VPS4B / RFU, CREB1 / Fold change vs veh, CREB1 / RFU, DNAJC13 / Fold change vs veh, DNAJC13 / RFU, GNAQ / Fold change vs veh, GNAQ / RFU, CDK5R1 / Fold change vs veh, CDK5R1 / RFU, ZRANB3 / Fold change vs veh, ZRANB3 / RFU, CUL4A / Fold change vs veh, CUL4A / RFU, CCNY / Fold change vs veh, CCNY / RFU, UFL1 / Fold change vs veh, UFL1 / RFU, COG3 / Fold change vs veh, COG3 / RFU, DIAPH2 / Fold change vs veh, DIAPH2 / RFU, SKA2 / Fold change vs veh, SKA2 / RFU, AFF3 / Fold change vs veh, AFF3 / RFU, LMF1 / Fold change vs veh, LMF1 / RFU, IPO11 / Fold change vs veh, IPO11 / RFU, DFFB / Fold change vs veh, DFFB / RFU, FOXP1 / Fold change vs veh, FOXP1 / RFU, CARD8 / Fold change vs veh, CARD8 / RFU, STRN3 / Fold change vs veh, STRN3 / RFU, ADK / Fold change vs veh, ADK / RFU, RASSF2 / Fold change vs veh, RASSF2 / RFU, WIPF1 / Fold change vs veh, WIPF1 / RFU, LARP1B / Fold change vs veh, LARP1B / RFU, RASA1 / Fold change vs veh, RASA1 / RFU, RB1 / Fold change vs veh, RB1 / RFU, PPFIA1 / Fold change vs veh, PPFIA1 / RFU, MAT2A / Fold change vs veh, MAT2A / RFU, CCT5 / Fold change vs veh, CCT5 / RFU, WDR92 / Fold change vs veh, WDR92 / RFU, CUX1 / Fold change vs veh, CUX1 / RFU, TTC7A / Fold change vs veh, TTC7A / RFU, TMEM135 / Fold change vs veh, TMEM135 / RFU, DEPTOR / Fold change vs veh, DEPTOR / RFU, CPM / Fold change vs veh, CPM / RFU, DNAJB6 / Fold change vs veh, DNAJB6 / RFU, CACNA2D3 / Fold change vs veh, CACNA2D3 / RFU, DTX4 / Fold change vs veh, DTX4 / RFU, TFCP2 / Fold change vs veh, TFCP2 / RFU, GMCL1 /// GMCL1P1 / Fold change vs veh, GMCL1 /// GMCL1P1 / RFU, AEBP2 / Fold change vs veh, AEBP2 / RFU, SNHG1 /// SNORD22 /// SNORD25 /// SNORD26 /// SNORD27 /// SNORD28 /// SNORD29 /// SNORD31 / Fold change vs veh, SNHG1 /// SNORD22 /// SNORD25 /// SNORD26 /// SNORD27 /// SNORD28 /// SNORD29 /// SNORD31 / Fold change (Aza/veh), C12orf56 (ProbeSet 11735607_a_at) / Fold change (ACY-1035/veh), C12orf56 (ProbeSet 11735607_a_at) / Fold change (Aza/veh), FGFR1OP (ProbeSet 11751329_s_at) / Fold change (ACY-1035/veh), FGFR1OP (ProbeSet 11751329_s_at) / Fold change (Aza/veh), VPS36 (ProbeSet 11739960_a_at) / Fold change (ACY-1035/veh), VPS36 (ProbeSet 11739960_a_at) / RFU SYPL1 (11715823_x_at) / Fold change /veh SYPL1 (11715823_x_at) / RFU IGFBP7 (11715501_s_at) / Fold change /veh IGFBP7 (11715501_s_at) / RFU REEP3 (11722064_at) / Fold change /veh REEP3 (11722064_at) / RFU IGLL1 (11728026_x_at) / Fold change /veh IGLL1 (11728026_x_at): dose or concentration left out as unconfirmed
Details: MV-4-11 cells, 48 hours

Nc1ncn([C@@H]2O[C@H](CO)[C@@H](O)[C@H]2O)c(=O)n1 [azacitidine]
RFU CCDC152 (11743942_at): 8.41 RFU
